Tests used:
[1] = tested on: normal NK cells expanded with K562-aAPC; assay: percent inhibition of viability; higher = more inhibition; settings: 72 h, IL-2 2.5 ng/mL
Experimental: (§1)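 Drug sensitivity and resistance testing on K562-aAPC-expanded normal NK cells: 5 concentrations (10-fold steps over a 10,000-fold range), 72 h at 37 °C, viability by CellTiter-Glo normalised to DMSO and benzethonium chloride controls; DSS from the fitted curve.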

DERL-7 (IL-2 2.5 ng/mL) [2] = assay: as above; settings: 72 h
IMC-1 (IL-2 20 ng/mL) [3] = assay: as above; settings: 72 h
KAI3 (IL-2 2.5 ng/mL) [4] = assay: as above; settings: 72 h
KHYG-1 (IL-2 2.5 ng/mL) [5] = assay: as above; settings: 72 h
NK-92 (IL-2 2.5 ng/mL) [6] = assay: as above; settings: 72 h
NK-YS (IL-2 2.5 ng/mL) [7] = assay: as above; settings: 72 h
NKL (IL-2 2.5 ng/mL) [8] = assay: as above; settings: 72 h
SNK-6 (IL-2 2.5 ng/mL) [9] = assay: as above; settings: 72 h
YT (IL-2 2.5 ng/mL) [10] = assay: as above; settings: 72 h
[11] = tested on: normal primary NK cells, pool 1 (3 donors) (IL-2 2.5 ng/mL); assay: as above; settings: 72 h
[12] = tested on: normal primary NK cells, pool 1 (3 donors), resting (IL-2 0 ng/mL); assay: as above; settings: 72 h
[13] = tested on: normal primary NK cells, pool 2 (3 donors) (IL-2 2.5 ng/mL); assay: as above; settings: 72 h
[14] = tested on: normal primary NK cells, pool 3 (3 donors) (IL-2 2.5 ng/mL); assay: as above; settings: 72 h
[15] = tested on: normal NK cells expanded with K562-aAPC; assay: drug sensitivity score (DSS) (DSS units); higher = more sensitive; extreme values may be limits of the assay; settings: 72 h; IL-2 2.5 ng/mL
Experimental: as §1

DERL-7 (IL-2 2.5 ng/mL) [16] = assay: as above; settings: 72 h
IMC-1 (IL-2 20 ng/mL) [17] = assay: as above; settings: 72 h
KAI3 (IL-2 2.5 ng/mL) [18] = assay: as above; settings: 72 h
KHYG-1 (IL-2 2.5 ng/mL) [19] = assay: as above; settings: 72 h
NK-92 (IL-2 2.5 ng/mL) [20] = assay: as above; settings: 72 h
NK-YS (IL-2 2.5 ng/mL) [21] = assay: as above; settings: 72 h
NKL (IL-2 2.5 ng/mL) [22] = assay: as above; settings: 72 h
SNK-6 (IL-2 2.5 ng/mL) [23] = assay: as above; settings: 72 h
YT (IL-2 2.5 ng/mL) [24] = assay: as above; settings: 72 h
[25] = tested on: normal primary NK cells, pool 1 (3 donors) (IL-2 2.5 ng/mL); assay: as above; settings: 72 h
[26] = tested on: normal primary NK cells, pool 1 (3 donors), resting (IL-2 0 ng/mL); assay: as above; settings: 72 h
[27] = tested on: normal primary NK cells, pool 2 (3 donors) (IL-2 2.5 ng/mL); assay: as above; settings: 72 h
[28] = tested on: normal primary NK cells, pool 3 (3 donors) (IL-2 2.5 ng/mL); assay: as above; settings: 72 h

O=P1(NCCCl)OCCCN1CCCl (stereo not drawn) [Ifosfamide] (max concentration tested 10000 nM)
percent inhibition of viability [%]
Settings	1 nM	10 nM	100 nM	1000 nM	10000 nM
DERL-7 (IL-2 2.5 ng/mL) [2]	-5.51	-7.54	-1.33	-3.22	-6.83
IMC-1 (IL-2 20 ng/mL) [3]	-7.45	-2.99	-8.91	-4.46	-9.5
KAI3 (IL-2 2.5 ng/mL) [4]	-7.61	-11.2	-10.2	-6.62	-0.66
KHYG-1 (IL-2 2.5 ng/mL) [5]	-2.87	-4.29	-7.54	-5.28	-6.85
NK-92 (IL-2 2.5 ng/mL) [6]	-16.3	-6.46	-7.42	-21.1	-17.7
NK-YS (IL-2 2.5 ng/mL) [7]	-1.93	-4.42	-4.13	1.8	-4.59
NKL (IL-2 2.5 ng/mL) [8]	-15.9	-21.4	-20.8	-20.4	-25.2
SNK-6 (IL-2 2.5 ng/mL) [9]	9.44	6.95	-7.05	-1.13	-14.1
YT (IL-2 2.5 ng/mL) [10]	-4.47	-6.22	-6.55	-4.33	-5.88
[1]	-2.46	-7.15	-2.89	-5.04	-1.58
[11]	-11.2	-7.35	-2.79	-2.71	1.61
[12]	-18.3	-6.52	1.44	-5.18	12.7
[13]	-7.91	-9.22	-9.46	-8.83	-4.62
[14]	-13.4	-7.36	-10.1	-8.46	-1.46

Settings	drug sensitivity score
DERL-7 (IL-2 2.5 ng/mL) [16]	0
IMC-1 (IL-2 20 ng/mL) [17]	0
KAI3 (IL-2 2.5 ng/mL) [18]	0
KHYG-1 (IL-2 2.5 ng/mL) [19]	0
NK-92 (IL-2 2.5 ng/mL) [20]	0
NK-YS (IL-2 2.5 ng/mL) [21]	0
NKL (IL-2 2.5 ng/mL) [22]	0
SNK-6 (IL-2 2.5 ng/mL) [23]	0
YT (IL-2 2.5 ng/mL) [24]	0
[15]	0
[25]	0
[26]	0.02
[27]	0
[28]	0

Cc1ccc(C(=O)Nc2ccc(CN3CCN(C)CC3)c(C(F)(F)F)c2)cc1C#Cc1cnc2cccnn12 [Ponatinib] (max concentration tested 1000 nM)
percent inhibition of viability [%]
Settings	0.1 nM	1 nM	10 nM	100 nM	1000 nM
DERL-7 (IL-2 2.5 ng/mL) [2]	6.88	2.27	-1.37	18.4	74.2
IMC-1 (IL-2 20 ng/mL) [3]	-6.8	-0.24	-8.73	-1.9	-20.2
KAI3 (IL-2 2.5 ng/mL) [4]	-7.8	-3.54	0.07	10.6	83.4
KHYG-1 (IL-2 2.5 ng/mL) [5]	-7.12	-3.44	-4.86	3.85	65.1
NK-92 (IL-2 2.5 ng/mL) [6]	-13.8	-10.1	-23.1	-19.9	55
NK-YS (IL-2 2.5 ng/mL) [7]	-8.44	-4.74	-4.88	8.88	33.5
NKL (IL-2 2.5 ng/mL) [8]	-13.5	-11.6	1.83	36.3	70.1
SNK-6 (IL-2 2.5 ng/mL) [9]	11.2	4.03	-7.68	-18.6	-2.96
YT (IL-2 2.5 ng/mL) [10]	-6.26	-2.49	1.52	27	68.5
[1]	-4.16	-2.02	24.4	-11.2	70.4
[11]	2.63	6.68	12.1	7.51	81.5
[12]	1.74	25.3	15.3	19.4	60
[13]	2.87	-1.56	1.5	-2.42	75
[14]	-2.51	2.42	9.55	-20	65

Settings	drug sensitivity score
DERL-7 (IL-2 2.5 ng/mL) [16]	6.96
IMC-1 (IL-2 20 ng/mL) [17]	0
KAI3 (IL-2 2.5 ng/mL) [18]	6.4
KHYG-1 (IL-2 2.5 ng/mL) [19]	4.12
NK-92 (IL-2 2.5 ng/mL) [20]	2.11
NK-YS (IL-2 2.5 ng/mL) [21]	2.89
NKL (IL-2 2.5 ng/mL) [22]	8.25
SNK-6 (IL-2 2.5 ng/mL) [23]	0
YT (IL-2 2.5 ng/mL) [24]	7.33
[15]	3.2
[25]	5.73
[26]	8.02
[27]	3.94
[28]	2.66

From the supplement of paper PMC5908809
